In patent US7989480B2, “Aryl amino acid derivatives as inhibitors for treating inflammation” (Decode Genetics EHF, priority 2006, dated 2011):
Where a name gives a salt, the structure may show the parent alone. Read-outs that look alike come from different tables or passages of the source.

What was measured:
[1] = target: T1, LTA4H (leukotriene A4 hydrolase) (Homo sapiens, UniProt P09960); test: LTA4H enzyme inhibition (EnzIC50); type: biochemical
T1 sequence (P09960 1-611): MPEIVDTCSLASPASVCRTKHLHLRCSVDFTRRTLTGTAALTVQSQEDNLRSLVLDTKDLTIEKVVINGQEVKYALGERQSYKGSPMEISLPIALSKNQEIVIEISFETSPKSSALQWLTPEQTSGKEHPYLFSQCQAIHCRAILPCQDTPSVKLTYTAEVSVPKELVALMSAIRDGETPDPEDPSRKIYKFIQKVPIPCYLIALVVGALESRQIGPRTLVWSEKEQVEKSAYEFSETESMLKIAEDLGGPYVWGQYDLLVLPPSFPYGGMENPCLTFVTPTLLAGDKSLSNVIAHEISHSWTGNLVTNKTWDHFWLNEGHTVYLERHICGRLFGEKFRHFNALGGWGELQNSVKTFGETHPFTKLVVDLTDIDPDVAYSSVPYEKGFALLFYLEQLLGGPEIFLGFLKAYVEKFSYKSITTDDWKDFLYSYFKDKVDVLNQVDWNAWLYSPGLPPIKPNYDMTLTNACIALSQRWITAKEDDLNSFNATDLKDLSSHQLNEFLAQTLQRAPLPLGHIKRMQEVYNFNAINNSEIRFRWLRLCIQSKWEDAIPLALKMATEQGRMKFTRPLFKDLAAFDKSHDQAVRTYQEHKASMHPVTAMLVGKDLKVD

[2] = system: hWB; test: hWB assay; type: cell-based; settings: Homo sapiens
[3] = system: ionophore-induced LTB4 production; settings: oral administration, mouse blood ex vivo; cited from earlier work
[4] = system: ionophore-induced LTB4 production; settings: oral administration, rat peritoneum in vivo; cited from earlier work
[5] = system: colitis symptoms; settings: eight weeks of treatment, primate model; cited from earlier work

IC50 [1]	IC50 [2]	Compound	further results
5 to 20 µM	–	COC(=O)[C@H](N)Cc1ccc(Oc2ccc(Oc3ccccc3)cc2)cc1 [Example 1, (R)-2-Amino-3-[4-(4-phenoxy-phenoxy)-phenyl]-propionic acid methyl ester hydrochloride]	–
< 5 µM	–	N[C@@H](CO)Cc1ccc(Oc2ccc(Oc3ccccc3)cc2)cc1 [Example 3, (R)-2-Amino-3-[4-(4-phenoxy-phenoxy)-phenyl]-propan-1-ol hydrochloride]	–
5 to 20 µM	–	CN[C@H](CO)Cc1ccc(Oc2ccc(Oc3ccccc3)cc2)cc1 [Example 8, (2S)-2-(Methylamino)-3-[4-(4-phenoxyphenoxy)phenyl]propan-1-ol hydrochloride]	–
< 5 µM	–	N[C@@H](Cc1ccc(Oc2ccc(Oc3ccccc3)cc2)cc1)C(O)C(=O)O (stereo partly drawn) [Example 10, (3S)-3-Amino-2-hydroxy-4-[4-(4-phenoxyphenoxy)phenyl]butanoic acid hydrochloride]	–
< 5 µM	–	N[C@@H](C(=O)O)c1ccc(Oc2ccc(Cc3ccccc3)cc2)cc1 [Example 15, (R)-Amino-[4-(4-benzyl-phenoxy)-phenyl]-acetic acid hydrochloride]	–
< 5 µM	–	N[C@H](CNO)Cc1ccc(Oc2ccc(Cl)cc2)cc1 [Example 21, N-{(S)-2-amino-3-[4-(4-chloro-phenoxy)-phenyl]-propyl}-hydroxyamine HCl salt]	–

Second part, the compound before the results:

Compound	IC50 [1]	IC50 [2]	further results
COC(=O)[C@H](N)Cc1ccc(Oc2ccc(C(=O)c3ccccc3)cc2)cc1 [Example 2, (R)-2-Amino-3-[4-(4-benzoyl-phenoxy)-phenyl]-propionic acid methyl ester hydrochloride]	< 5 µM	–	–
N[C@H](CO)Cc1ccc(Oc2ccc(Oc3ccccc3)cc2)cc1 [Example 4, (S)-2-Amino-3-[4-(4-phenoxy-phenoxy)-phenyl]-propan-1-ol hydrochloride]	< 5 µM	5 to 20 µM	–
N[C@@H](Cc1ccc(Oc2ccc(Cc3ccc(Cl)cc3)cc2)cc1)C(=O)O [Example 5, S)-2-Amino-3-{4-[4-(4-chloro-benzyl)-phenoxy]-phenyl}-propionic acid hydrochloride]	5 to 20 µM	–	–
N[C@@H](Cc1ccc(Oc2ccc(Oc3ccccc3)cc2)cc1)C(=O)O [Example 6, (2S)-2-Amino-3-[4-(4-phenoxyphenoxy)phenyl]propanoic acid hydrochloride]	< 5 µM	< 5 µM	–
CN[C@H](CO)Cc1ccc(Oc2ccc(Cc3ccccc3)cc2)cc1 [Example 9, (2S)-3-[4-(4-Benzylphenoxy)phenyl]-2-(methylamino)propan-1-ol hydrochloride]	5 to 20 µM	–	–
N[C@@H](Cc1ccc(Oc2ccc(Oc3ccc(-c4nccs4)cc3)cc2)cc1)C(=O)O [Example 11, (S)-2-Amino-3-{4-[4-(4-thiazol-2-yl-phenoxy)-phenoxy]-phenyl}-propionic acid]	< 5 µM	–	–
N[C@H](CO)Cc1ccc(Oc2ccc(Oc3ccc(-c4nccs4)cc3)cc2)cc1 [Example 12, (S)-2-Amino-3-{4-[4-(4-thiazol-2-yl-phenoxy)-phenoxy]-phenyl}-propan-1-ol]	< 5 µM	< 5 µM	–
N[C@H](CNO)Cc1ccc(Oc2ccc(Oc3ccc(Cl)cc3)cc2)cc1 [Example 14]	< 5 µM	< 5 µM	–
COc1ccc(Oc2ccc(C[C@H](N)CO)cc2)cc1 [Example 19, (S)-2-Amino-3-[4-(4-methoxyphenoxy)-phenyl]-propan-1-ol hydrochloric acid salt]	< 5 µM	–	–
N[C@H](CO)Cc1ccc(Oc2ccc(Cc3ccccc3)cc2)cc1 [Example 20, (S)-2-Amino-3-[4-(4-benzylphenoxy)-phenyl]-propan-1-ol hydrochloric acid salt]	< 5 µM	< 5 µM	–
CC(=O)N(O)C[C@@H](N)Cc1ccc(Oc2ccc(Cl)cc2)cc1 [Example 22, N-{(S)-2-amino-3-[4-(4-chloro-phenoxy)-phenyl]-propyl}-N-hydroxy-acetamide HCl salt]	< 5 µM	< 5 µM	–
CN(CCCOc1ccc(Cc2ccccc2)cc1)CCC(=O)O.Cl [SC57461]	–	–	inhibition of ionophore-induced LTB4 production [3]: inhibition of ionophore-induced LTB4 production; inhibition of ionophore-induced LTB4 production [4]: inhibition of ionophore-induced LTB4 production; colitis symptoms [5]: significantly improved colitis symptoms
